Drawing on patent US5686466A, “Tricyclic condensed heterocyclic compounds their production and use” (priority 1993, dated 1997), this text covers IC50 for 63 compounds.

Structures can show the parent of a compound that is named as a salt.

T1 sequence (P37136 32-614): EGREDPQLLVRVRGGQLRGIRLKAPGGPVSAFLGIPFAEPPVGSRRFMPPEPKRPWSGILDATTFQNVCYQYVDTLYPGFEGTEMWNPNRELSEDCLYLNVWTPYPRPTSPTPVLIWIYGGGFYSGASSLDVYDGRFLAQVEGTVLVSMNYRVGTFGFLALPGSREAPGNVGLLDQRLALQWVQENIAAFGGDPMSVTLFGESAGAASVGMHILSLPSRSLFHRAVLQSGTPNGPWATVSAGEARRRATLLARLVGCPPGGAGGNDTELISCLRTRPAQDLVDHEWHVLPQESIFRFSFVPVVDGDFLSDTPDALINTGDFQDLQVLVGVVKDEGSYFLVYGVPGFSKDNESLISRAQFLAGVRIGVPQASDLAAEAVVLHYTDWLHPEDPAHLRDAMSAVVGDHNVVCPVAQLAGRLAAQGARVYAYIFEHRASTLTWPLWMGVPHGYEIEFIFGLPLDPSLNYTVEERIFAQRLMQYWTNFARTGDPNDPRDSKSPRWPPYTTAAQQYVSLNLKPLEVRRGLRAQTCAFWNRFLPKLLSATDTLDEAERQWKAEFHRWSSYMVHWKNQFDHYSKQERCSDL

One test addresses T1, Acetylcholinesterase (Rattus norvegicus, UniProt P37136).
T1 construct: Using the S1 fraction of a male Wistar rat cerebral cortex homogenate as a source of cholinesterase; from tissue; host or cells: male Wistar rat cerebral cortex homogenate, S1 fraction
Kind of test: cholinesterase inhibitory activity using (acetyl-[^3 H])-acetylcholine, S1 fraction of rat cerebral cortex homogenate. The test is classed as biochemical, male Wistar rat. The conditions noted are these: 30 min incubation.
Procedure: The cholinesterase inhibitory activity of the compound of the present invention was tested, using (acetyl-[^3 H])-acetylcholine. Using the S1 fraction of a male Wistar rat cerebral cortex homogenate as a source of cholinesterase, (acetyl-[^3 H])-acetylcholine, as a substrate, and the test compound, as a sample, were incubated for 30 minutes. After the reaction was terminated, a toluene scintillator was added and the reaction mixture was shaken to migrate the [^3 H]-acetic acid resulting from the reaction to the toluene layer, where radioactivity was counted using a liquid scintillation counter to determine the cholinesterase inhibitory activity.
The sample's cholinesterase inhibitory activity was expressed by 50% inhibitory concentration (IC50).
The term IC50 denotes the concentration that inhibits the measured activity by half. `CN1CC2CCCc3c(C(=O)CCC4CCN(Cc5ccccc5)CC4)ccc1c32` (stereo not drawn) [16-1] showed an IC50 of 154 nM. Same read-out and setting: the value for `O=C(CCN1CCN(Cc2ccccc2)CC1)c1cc2c3c(c1)CCN3C(=O)CC2` [17-1] was 3 nM. Same read-out and setting: the value for `O=C(CCN1CCN(Cc2ccccc2)CC1)c1cc2c3c(c1)CC(=O)N3CCC2` [17-2] was 7.6 nM. Same read-out and setting: the value for `O=C(CCN1CCN(Cc2ccccc2)CC1)c1cc2c3c(c1)CC(=O)N3CCCC2` [17-3] was 17.2 nM. Regarding `CC1CC(=O)N2CCc3cc(C(=O)CCN4CCN(Cc5ccccc5)CC4)cc1c32` (stereo not drawn) [17-4], it took 9.5 nM to reach half-maximal inhibition (IC50).

Turning to `O=C(CCN1CCN(Cc2ccccc2)CC1)c1cc2c3c(c1)CCC(=O)N3CCC2` [17-6], it took 15.1 nM to reach half-maximal inhibition (IC50). For `O=CN1Cc2cc(C(=O)CCN3CCN(Cc4ccccc4)CC3)ccc2Cc2ccccc21` [17-7], the IC50 worked out at 33 nM.

`O=CN1Cc2cc(C(=O)CCN3CCN(Cc4ccccc4)CC3)ccc2Oc2ccccc21` [17-8] returned an IC50 of 47 nM. Same read-out and setting: the value for `O=CN1Cc2cc(C(=O)CCN3CCN(Cc4ccccc4)CC3)ccc2CCc2ccccc21` [17-10] was 96.8 nM. On the same count and under the same terms, next, `CCC(=O)N1CC2CCCc3c(C(=O)CCC4CCN(Cc5ccccc5)CC4)ccc1c32` (stereo not drawn) [20-1]: 182 nM; `O=C(CCN1CCN(Cc2ccccc2Cl)CC1)c1cc2c3c(c1)CC(=O)N3CCC2` [30-3]: 10.9 nM. `O=C(CCN1CCN(Cc2cccc(Cl)c2)CC1)c1cc2c3c(c1)CC(=O)N3CCC2` [30-4] gave an IC50 of 43 nM. Same read-out and setting: next, `O=C(CCN1CCN(Cc2ccccc2F)CC1)c1cc2c3c(c1)CC(=O)N3CCC2` [30-10]: 18.9 nM. On the same count and under the same terms, next, `O=C(CCN1CCN(Cc2cccc(F)c2)CC1)c1cc2c3c(c1)CC(=O)N3CCC2` [30-11]: 16.9 nM. `O=C(CCN1CCN(Cc2ccc(F)cc2)CC1)c1cc2c3c(c1)CC(=O)N3CCC2` [30-12] yielded an IC50 of 23.9 nM. The same measure, in the same setting: next, `COc1ccccc1CN1CCN(CCC(=O)c2cc3c4c(c2)CC(=O)N4CCC3)CC1` [30-13]: 130 nM; `O=C(CCN1CCN(Cc2ccccc2O)CC1)c1cc2c3c(c1)CC(=O)N3CCC2` [30-16]: 5.8 nM; `Cc1ccccc1CN1CCN(CCC(=O)c2cc3c4c(c2)CCN4C(=O)CC3)CC1` [30-18]: 24.9 nM. Same read-out and setting: the value for `O=C(CCN1CCN(Cc2ccccc2F)CC1)c1cc2c3c(c1)CCN3C(=O)CC2` [30-24] was 1.5 nM; that for `O=C(CCN1CCN(Cc2ccc(F)cc2)CC1)c1cc2c3c(c1)CCN3C(=O)CC2` [30-26] was 4.4 nM. The compound `O=C(CCN1CCN(Cc2cccc([N+](=O)[O-])c2)CC1)c1cc2c3c(c1)CCN3C(=O)CC2` [30-29] gave an IC50 of 29.3 nM. Same read-out and setting: the value for `COc1ccccc1CN1CCN(CCC(=O)c2cc3c4c(c2)CCN4C(=O)CC3)CC1` [30-32] was 91.1 nM; that for `O=C(CCC1CCN(Cc2ccccc2)CC1)c1cc2c3c(c1)CC(=O)N3CCC2` [30-34] was 0.5 nM; that for `O=C(CCN1CCN(Cc2cccc([N+](=O)[O-])c2)CC1)c1cc2c3c(c1)CC(=O)N3CCC2` [30-35] was 67.9 nM. Still for that read-out and setting: the value for `O=C(CCC1CCN(Cc2ccccc2)CC1)c1cc2c3c(c1)CCN3C(=O)CC2` [30-38] was 0.18 nM. Same read-out and setting: next, `O=C(CCC1CCN(Cc2ccccc2F)CC1)c1cc2c3c(c1)CCN3C(=O)CC2` [30-39]: 0.5 nM; `O=C(CCC1CCN(Cc2cccc(F)c2)CC1)c1cc2c3c(c1)CCN3C(=O)CC2` [30-40]: 0.092 nM; `O=C(CCC1CCN(Cc2ccc(F)cc2)CC1)c1cc2c3c(c1)CCN3C(=O)CC2` [30-41]: 0.47 nM. `O=C(CCC1CCN(Cc2ccccc2Cl)CC1)c1cc2c3c(c1)CCN3C(=O)CC2` [30-42] gave an IC50 of 0.54 nM. The compound `O=C(CCC1CCN(Cc2cccc(Cl)c2)CC1)c1cc2c3c(c1)CCN3C(=O)CC2` [30-43] displayed an IC50 of 0.065 nM. As for `O=C(CCC1CCN(Cc2ccc(Cl)cc2)CC1)c1cc2c3c(c1)CCN3C(=O)CC2` [30-44], half-maximal inhibition (IC50) required 59.9 nM. The same measure, in the same setting: the value for `Cc1ccccc1CN1CCC(CCC(=O)c2cc3c4c(c2)CCN4C(=O)CC3)CC1` [30-45] was 0.304 nM; that for `Cc1cccc(CN2CCC(CCC(=O)c3cc4c5c(c3)CCN5C(=O)CC4)CC2)c1` [30-46] was 0.2 nM. `Cc1ccc(CN2CCC(CCC(=O)c3cc4c5c(c3)CCN5C(=O)CC4)CC2)cc1` [30-47] displayed an IC50 of 19.5 nM.

For `COc1ccccc1CN1CCC(CCC(=O)c2cc3c4c(c2)CCN4C(=O)CC3)CC1` [30-48], the IC50 was 17.1 nM. Same read-out and setting: next, `O=C(CCC1CCN(Cc2cccc([N+](=O)[O-])c2)CC1)c1cc2c3c(c1)CCN3C(=O)CC2` [30-52]: 0.36 nM; `O=C(CCC1CCN(Cc2ccc([N+](=O)[O-])cc2)CC1)c1cc2c3c(c1)CCN3C(=O)CC2` [30-53]: 25.4 nM; `Cc1ccc(CN2CCC(CCC(=O)c3cc4c5c(c3)CCN5C(=O)CC4)CC2)c(C)c1` [30-54]: 60.9 nM. On the same count and under the same terms, next, `Cc1ccc(C)c(CN2CCC(CCC(=O)c3cc4c5c(c3)CCN5C(=O)CC4)CC2)c1` [30-56]: 18.3 nM; `O=C(CCC1CCN(Cc2ccccc2O)CC1)c1cc2c3c(c1)CCN3C(=O)CC2` [30-58]: 0.12 nM; `O=C(CCC1CCN(Cc2cccc(O)c2)CC1)c1cc2c3c(c1)CCN3C(=O)CC2` [30-59]: 1.12 nM. Same read-out and setting: the value for `O=C(CCC1CCN(Cc2ccc(O)cc2)CC1)c1cc2c3c(c1)CCN3C(=O)CC2` [30-60] was 0.078 nM; that for `N#Cc1ccccc1CN1CCC(CCC(=O)c2cc3c4c(c2)CCN4C(=O)CC3)CC1` [30-61] was 15.6 nM; that for `O=C(CCN1CCN(Cc2ccccc2)CC1)c1ccc2c(c1)CNc1ccccc1C2` [32-2] was 115 nM.

In turn, `O=C(CCN1CCN(Cc2ccccc2)CC1)c1ccc2c(c1)CNc1ccccc1O2` [32-3] came in with a half-inhibitory concentration (IC50) of 59 nM.

`O=C(CCN1CCN(Cc2ccccc2)CC1)c1ccc2c(c1)CN(Cc1ccccc1)Cc1ccccc1-2` [34-1] came in with an IC50 of 39.3 nM. Still for that read-out and setting: the value for `COc1ccc(CN2Cc3ccccc3-c3ccc(C(=O)CCN4CCN(Cc5ccccc5)CC4)cc3C2)cc1` [34-2] was 20 nM. On to `CC(=O)N1Cc2ccccc2-c2ccc(C(=O)CCN3CCN(Cc4ccccc4)CC3)cc2C1` [34-3], for which the IC50 is 171 nM. The same measure, in the same setting: the value for `COc1ccc(C(=O)N2Cc3ccccc3-c3ccc(C(=O)CCN4CCN(Cc5ccccc5)CC4)cc3C2)cc1` [34-5] was 31.6 nM; that for `O=C(CCC1CCN(Cc2ccccc2)CC1)c1ccc2c3c(cccc13)CN(Cc1ccccc1)C2` [37-2] was 184 nM. Compound `CN1c2ccc(C(=O)CCC3CCN(Cc4ccccc4)CC3)cc2C2CCCCC21` (stereo not drawn) [37-4] gave a half-maximal inhibitory concentration (IC50) of 136 nM.

For another test, the system named is [^3 H]-norepinephirine(NE) uptake. Kind of test: monoamine uptake inhibition, [^3 H]-norepinephirine (NE), crude synaptosomal preparations of cerebral cortex and hippocampus. Format: biochemical. The conditions noted are these: [^3 H]-NE 11 nM; 37° C; rat synaptosomes; read-out: Monoamine Reuptake Inhibitory Activity IC50, NE. The procedure:
(§1) Effects of the compound of this invention on monoamine uptake were investigated using [^3 H]-norepinephirine(NE) and [3H]-serotonin (5-HT). Rats were sacrificed by decapitation. The cerebral cortex and hippocampus were removed and homogenized in 10-15 volumes (W/V) of an ice-cold medium containing 0.32M sucrose. Crude synaptosomal preparations (P2) were isolated after differential centrifugation at 1000×g for 10 min and 20,000×g for 30 min at 4° C. Synaptosomal membranes were suspended in Krebs-Ringer bicarbonate (KRB) solution (116 mM NaCl, 4.8 mM KCl, 1.3 mM CaCl2, 1.2 mM MgSO4, 1.2 mM NaH2 PO4, 25 mM NaHCO3, 0.1 mM EDTA-2Na, 11.1 mM D-glucose, 0.11 mM L-ascorbic acid, 0.01 mM pargyline). Synaptosomal membrane suspension (900 μl) was preincubated with the test compound dissolved in DMSO solution at 37° C. for 5 min. The reaction was initiated by addition of 100 μl of [^3 H]-NE (11 nM in final concentration) or [^3 H]-HT (10 nM in final concentration). Five minutes later, the reaction was stopped by the addition of 4 ml of ice-cold KRB and the reaction mixture was filtered through Whatman CF/B. Filters were washed twice with 4 ml of KRB and the radioactivity bound was counted with liquid scintillant. Imipramine was used as positive control.
Regarding `O=C(CCN1CCN(Cc2ccccc2)CC1)c1ccc2c(c1)C1CCCCC1N2` (stereo not drawn) [19-1], the IC50 turned out to be 328 nM. Still for that read-out and setting: next, `CCc1ccccc1CN1CCN(CCC(=O)c2cc3c4c(c2)CC(=O)N4CCC3)CC1` [30-6]: 5960 nM. The same measure, in the same setting: next, `Cc1ccc(CN2CCN(CCC(=O)c3cc4c5c(c3)CC(=O)N5CCC4)CC2)cc1C` [30-8]: 643 nM. Still for that read-out and setting: next, `Cc1ccc(CN2CCN(CCC(=O)c3cc4c5c(c3)CCN5C(=O)CC4)CC2)cc1C` [30-28]: 2810 nM. Turning to `O=C(CCN1CCN(Cc2ccc([N+](=O)[O-])cc2)CC1)c1cc2c3c(c1)CC(=O)N3CCC2` [30-36], the IC50 turned out to be 7480 nM. Same read-out and setting: the value for `O=C(CCN1CCN(Cc2ccc3c(c2)OCO3)CC1)c1cc2c3c(c1)CC(=O)N3CCC2` [31-1] was 6180 nM; that for `O=C(CCN1CCC(Cc2ccccc2)CC1)c1cc2c3c(c1)CC(=O)N3CCC2` [31-2] was 73.8 nM; that for `O=CN1Cc2ccccc2-c2ccc(C(=O)CCN3CCC(Cc4ccccc4)CC3)cc2C1` [31-11] was 515 nM. Turning to `O=C(CCN1CCN(Cc2ccccc2)CC1)c1ccc2c(c1)CN(C(=O)c1ccccc1)Cc1ccccc1-2` [34-4], the IC50 worked out at 456 nM. Still for that read-out and setting: next, `O=C(CCN1CCC(Cc2ccccc2)CC1)c1ccc2c(c1)CN(C(=O)c1ccccc1)Cc1ccccc1-2` [34-8]: 197 nM; `CN(C)CCCN1c2ccccc2CCc2ccccc21` [Imipramine, reference compound]: 1120 nM. On to `O=C(CCN1CCN(Cc2ccccc2)CC1)c1ccc2c3c1CCCC3CN2` (stereo not drawn) [compound 2, 1-(1,2,2a,3,4,5-Hexahydrobenz[cd]indol-6-yl)-3-[1-(phenylmethyl)piperazin-4-yl]-1-propanone trihydrochloride], for which the IC50 is 420 nM.

The next test relates to [3H]-serotonin (5-HT) uptake. Kind of test: monoamine uptake inhibition, [3H]-serotonin (5-HT), crude synaptosomal preparations of cerebral cortex and hippocampus. The test is classed as biochemical. The settings on record: [^3 H]-HT 10 nM; 37° C; rat synaptosomes; read-out: Monoamine Reuptake Inhibitory Activity IC50, 5-HT. Here is the method: as §1
For the compound `O=C(CCN1CCN(Cc2ccccc2)CC1)c1ccc2c(c1)C1CCCCC1N2` (stereo not drawn) [19-1], the IC50 was 1670 nM.

On to `CCc1ccccc1CN1CCN(CCC(=O)c2cc3c4c(c2)CC(=O)N4CCC3)CC1` [30-6], for which the IC50 stood at 86.3 nM. `Cc1ccc(CN2CCN(CCC(=O)c3cc4c5c(c3)CC(=O)N5CCC4)CC2)cc1C` [30-8]: the half-inhibitory concentration (IC50) amounted to 60.7 nM. Still for that read-out and setting: next, `Cc1ccc(CN2CCN(CCC(=O)c3cc4c5c(c3)CCN5C(=O)CC4)CC2)cc1C` [30-28]: 61.5 nM; `O=C(CCN1CCN(Cc2ccc([N+](=O)[O-])cc2)CC1)c1cc2c3c(c1)CC(=O)N3CCC2` [30-36]: 46.8 nM; `O=C(CCN1CCN(Cc2ccc3c(c2)OCO3)CC1)c1cc2c3c(c1)CC(=O)N3CCC2` [31-1]: 46.3 nM. On the same count and under the same terms, the value for `O=C(CCN1CCC(Cc2ccccc2)CC1)c1cc2c3c(c1)CC(=O)N3CCC2` [31-2] was 8.79 nM; that for `O=CN1Cc2ccccc2-c2ccc(C(=O)CCN3CCC(Cc4ccccc4)CC3)cc2C1` [31-11] was 69.5 nM.

Regarding `O=C(CCN1CCN(Cc2ccccc2)CC1)c1ccc2c(c1)CN(C(=O)c1ccccc1)Cc1ccccc1-2` [34-4], the IC50 turned out to be 969 nM. Same read-out and setting: next, `O=C(CCN1CCC(Cc2ccccc2)CC1)c1ccc2c(c1)CN(C(=O)c1ccccc1)Cc1ccccc1-2` [34-8]: 363 nM. On to `CN(C)CCCN1c2ccccc2CCc2ccccc21` [Imipramine, reference compound], for which the IC50 is 63 nM. Same read-out and setting: next, `O=C(CCN1CCN(Cc2ccccc2)CC1)c1ccc2c3c1CCCC3CN2` (stereo not drawn) [compound 2, 1-(1,2,2a,3,4,5-Hexahydrobenz[cd]indol-6-yl)-3-[1-(phenylmethyl)piperazin-4-yl]-1-propanone trihydrochloride]: 594 nM.
